Where “and” joins values, the source holds several entries; their conditions need not be identical. Equal values may be shown once. Toxic doses and inconclusive results are not listed.
Tested on: L1210 leukemia ip in BDF1 mice, survival T/C
Assay: NCI In Vivo Anticancer Drug Screen. Data for tumor model L1210 Leukemia (intraperitoneal) in B6D2F1 (BDF1) mice
Conditions: endpoint: mean survival time, higher = longer survival
Summary of the method: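 In this screen, tumor-bearing mice given compound are compared to those given vehicle, and their survival values are reported as a treated-to-control quotient.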

[1] = dose: 100.0 mg/kg/injection, schedule: Q01DX001 (ip), vehicle: saline
[2] = dose: 100.0 mg/kg/injection, schedule: Q04DX003 (ip), vehicle: Klucel (hydroxypropylcellulose) (HPC)
[3] = dose: 200.0 mg/kg/injection, schedule: Q04DX003 (ip), vehicle: Klucel (hydroxypropylcellulose) (HPC)
[4] = dose: 100.0 mg/kg/injection, schedule: Q01DX009 (ip), vehicle: saline with Tween-80
[5] = dose: 200.0 mg/kg/injection, schedule: Q01DX009 (ip), vehicle: saline with Tween-80

## O=C(Nc1cccc(C2=NCCCN2)c1)Nc1ccc(NC(=O)Nc2cccc(C3=NCCCN3)c2)c(Cl)c1
dose: 0.47 mg/kg/injection, schedule: Q01DX Z (ip), vehicle: carboxymethylcellulose (CMC)
  T/C: 121 % of control
dose: 0.93 mg/kg/injection, schedule: Q01DX Z (ip), vehicle: carboxymethylcellulose (CMC)
  T/C: 118 % of control
dose: 3.75 mg/kg/injection, schedule: Q01DX Z (ip), vehicle: carboxymethylcellulose (CMC)
  T/C: 156 % of control and 204 % of control
dose: 7.5 mg/kg/injection, schedule: Q01DX Z (ip), vehicle: carboxymethylcellulose (CMC)
  T/C: 229 % of control
dose: 18.0 mg/kg/injection, schedule: Q01DX001 (ip), vehicle: carboxymethylcellulose (CMC)
  T/C: 152 % of control
dose: 25.0 mg/kg/injection, schedule: Q01DX Z (oral), vehicle: carboxymethylcellulose (CMC)
  T/C: 101 % of control
dose: 26.0 mg/kg/injection, schedule: Q01DX001 (ip), vehicle: carboxymethylcellulose (CMC)
  T/C: 150 % of control
dose: 26.0 mg/kg/injection, schedule: Q01DX001 (ip), vehicle: other
  T/C: 154 % of control
dose: 40.0 mg/kg/injection, schedule: Q01DX001 (ip), vehicle: carboxymethylcellulose (CMC)
  T/C: 150 % of control and 162 % of control
dose: 40.0 mg/kg/injection, schedule: Q01DX001 (ip), vehicle: other
  T/C: 171 % of control
dose: 50.0 mg/kg/injection, schedule: Q01DX Z (oral), vehicle: carboxymethylcellulose (CMC)
  T/C: 98 % of control
dose: 60.0 mg/kg/injection, schedule: Q01DX001 (ip), vehicle: carboxymethylcellulose (CMC)
  T/C: 173 % of control and 200 % of control
dose: 60.0 mg/kg/injection, schedule: Q01DX001 (ip), vehicle: other
  T/C: 185 % of control
dose: 80.0 mg/kg/injection, schedule: Q01DX001 (ip), vehicle: carboxymethylcellulose (CMC)
  T/C: 236 % of control
dose: 100.0 mg/kg/injection, schedule: Q01DX Z (oral), vehicle: carboxymethylcellulose (CMC)
  T/C: 104 % of control
dose: 200.0 mg/kg/injection, schedule: Q01DX Z (oral), vehicle: carboxymethylcellulose (CMC)
  T/C: 101 % of control

## COc1ccc(C(N)=O)c(C)c1OC
dose: 50.0 mg/kg/injection, schedule: Q01DX001 (ip), vehicle: saline
  T/C: 98 % of control
[1]
  T/C: 95 % of control
dose: 200.0 mg/kg/injection, schedule: Q01DX001 (ip), vehicle: saline
  T/C: 95 % of control
dose: 400.0 mg/kg/injection, schedule: Q01DX001 (ip), vehicle: saline
  T/C: 95 % of control

## Nc1nnnn1N(Cc1ccccc1)Cc1ccccc1
[2]
  T/C: 96 % of control
[3]
  T/C: 117 % of control

## CC1(C)N=C(N)N=C(N)N1c1ccc(Cl)cc1Cl
dose: 20.0 mg/kg/injection, schedule: Q04DX003 (ip), vehicle: Klucel (hydroxypropylcellulose) (HPC)
  T/C: 104 % of control
dose: 25.0 mg/kg/injection, schedule: Q01DX001 (ip), vehicle: saline with Tween-80
  T/C: 97 % of control
dose: 25.0 mg/kg/injection, schedule: Q01DX009 (ip), vehicle: Klucel (hydroxypropylcellulose) (HPC)
  T/C: 105 % of control
dose: 40.0 mg/kg/injection, schedule: Q04DX003 (ip), vehicle: Klucel (hydroxypropylcellulose) (HPC)
  T/C: 100 % of control
dose: 50.0 mg/kg/injection, schedule: Q01DX001 (ip), vehicle: saline with Tween-80
  T/C: 93 % of control
dose: 50.0 mg/kg/injection, schedule: Q01DX009 (ip), vehicle: Klucel (hydroxypropylcellulose) (HPC)
  T/C: 94 % of control
dose: 80.0 mg/kg/injection, schedule: Q04DX003 (ip), vehicle: Klucel (hydroxypropylcellulose) (HPC)
  T/C: 94 % of control
dose: 100.0 mg/kg/injection, schedule: Q01DX001 (ip), vehicle: saline with Tween-80
  T/C: 97 % of control
[1]
  T/C: 100 % of control
[2]
  T/C: 94 % of control

## Cc1ccc(N2SC(Cl)(Cl)N(c3ccc(C)cc3)SC2(Cl)Cl)cc1
[2]
  T/C: 94 % of control
[3]
  T/C: 90 % of control
dose: 400.0 mg/kg/injection, schedule: Q04DX003 (ip), vehicle: Klucel (hydroxypropylcellulose) (HPC)
  T/C: 100 % of control

## CC(C)CCCC(C)C1CCC2C3CC4C(F)(F)C45CC4(CCC5(C)C3CCC12C)OCCO4 (stereo not given)
dose: 100.0 mg/kg/injection, schedule: Q04DX002 (ip), vehicle: other
  T/C: 101 % of control
dose: 200.0 mg/kg/injection, schedule: Q04DX002 (ip), vehicle: other
  T/C: 90 % of control
dose: 400.0 mg/kg/injection, schedule: Q04DX002 (ip), vehicle: other
  T/C: 93 % of control

## CN(C)c1ccc(/C=C2\C=Cc3ccccc32)cc1F
dose: 100.0 mg/kg/injection, schedule: Q01DX001 (ip), vehicle: carboxymethylcellulose (CMC)
  T/C: 92 % of control
[4]
  T/C: 100 % of control
dose: 200.0 mg/kg/injection, schedule: Q01DX001 (ip), vehicle: carboxymethylcellulose (CMC)
  T/C: 95 % of control
[5]
  T/C: 94 % of control
dose: 400.0 mg/kg/injection, schedule: Q01DX001 (ip), vehicle: carboxymethylcellulose (CMC)
  T/C: 97 % of control
dose: 400.0 mg/kg/injection, schedule: Q01DX009 (ip), vehicle: saline with Tween-80
  T/C: 98 % of control

## CSc1ccc(NC(=O)Nc2cccc(F)c2)cc1
dose: 100.0 mg/kg/injection, schedule: Q01DX009 (ip), vehicle: other
  T/C: 108 % of control
dose: 200.0 mg/kg/injection, schedule: Q01DX009 (ip), vehicle: other
  T/C: 96 % of control

## [N-]=[N+]=CC(=O)NCC(=O)NN=C(CO)CO
dose: 180.0 mg/kg/injection, schedule: Q01DX009 (ip), vehicle: water
  T/C: 118 % of control
dose: 265.0 mg/kg/injection, schedule: Q01DX009 (ip), vehicle: water
  T/C: 122 % of control

## NS(=O)(=O)c1ccc(N=Nc2ncc(CC(NC3=CC(=O)C(=O)c4ccccc43)C(=O)O)[nH]2)cc1 (stereo not given)
dose: 50.0 mg/kg/injection, schedule: Q01DX009 (ip), vehicle: saline
  T/C: 96 % of control
dose: 100.0 mg/kg/injection, schedule: Q01DX009 (ip), vehicle: saline
  T/C: 96 % of control
dose: 200.0 mg/kg/injection, schedule: Q01DX009 (ip), vehicle: saline
  T/C: 105 % of control

## O=S(=O)(F)c1ccc(C[P+](c2ccccc2)(c2ccccc2)c2ccccc2)cc1Cl
dose: 12.5 mg/kg/injection, schedule: Q01DX001 (ip), vehicle: carboxymethylcellulose (CMC)
  T/C: 103 % of control
dose: 12.5 mg/kg/injection, schedule: Q01DX009 (ip), vehicle: carboxymethylcellulose (CMC)
  T/C: 113 % of control and 117 % of control
dose: 12.5 mg/kg/injection, schedule: Q04DX002 (ip), vehicle: carboxymethylcellulose (CMC)
  T/C: 97 % of control and 100 % of control
dose: 25.0 mg/kg/injection, schedule: Q01DX001 (ip), vehicle: carboxymethylcellulose (CMC)
  T/C: 99 % of control
dose: 25.0 mg/kg/injection, schedule: Q01DX009 (ip), vehicle: carboxymethylcellulose (CMC)
  T/C: 97 % of control and 98 % of control
dose: 25.0 mg/kg/injection, schedule: Q04DX002 (ip), vehicle: carboxymethylcellulose (CMC)
  T/C: 100 % of control and 103 % of control
dose: 25.0 mg/kg/injection, schedule: Q04DX003 (ip), vehicle: carboxymethylcellulose (CMC)
  T/C: 96 % of control and 102 % of control
dose: 50.0 mg/kg/injection, schedule: Q01DX001 (ip), vehicle: carboxymethylcellulose (CMC)
  T/C: 99 % of control and 101 % of control and 107 % of control
dose: 50.0 mg/kg/injection, schedule: Q01DX009 (ip), vehicle: carboxymethylcellulose (CMC)
  T/C: 98 % of control and 103 % of control
dose: 50.0 mg/kg/injection, schedule: Q04DX002 (ip), vehicle: carboxymethylcellulose (CMC)
  T/C: 100 % of control and 110 % of control
dose: 50.0 mg/kg/injection, schedule: Q04DX003 (ip), vehicle: carboxymethylcellulose (CMC)
  T/C: 102 % of control and 105 % of control
dose: 100.0 mg/kg/injection, schedule: Q04DX002 (ip), vehicle: carboxymethylcellulose (CMC)
  T/C: 101 % of control and 91 % of control
dose: 100.0 mg/kg/injection, schedule: Q04DX003 (ip), vehicle: carboxymethylcellulose (CMC)
  T/C: 102 % of control and 104 % of control

## COc1ccc(OC)c(NC(=O)Nc2ccc([N+](=O)[O-])cc2OC)c1
dose: 100.0 mg/kg/injection, schedule: Q01DX009 (ip), vehicle: Klucel (hydroxypropylcellulose) (HPC)
  T/C: 96 % of control
dose: 200.0 mg/kg/injection, schedule: Q01DX009 (ip), vehicle: Klucel (hydroxypropylcellulose) (HPC)
  T/C: 93 % of control
dose: 400.0 mg/kg/injection, schedule: Q01DX009 (ip), vehicle: Klucel (hydroxypropylcellulose) (HPC)
  T/C: 94 % of control

## CCNS(=O)(=O)c1cccc(C(N)=S)c1
dose: 100.0 mg/kg/injection, schedule: Q01DX001 (ip), vehicle: gum acacia
  T/C: 103 % of control
dose: 200.0 mg/kg/injection, schedule: Q01DX001 (ip), vehicle: gum acacia
  T/C: 105 % of control
dose: 400.0 mg/kg/injection, schedule: Q01DX001 (ip), vehicle: gum acacia
  T/C: 106 % of control

## COc1ccc(C(=O)CC(c2ccccc2)N2CCCCC2)cc1OC (stereo not given)
dose: 100.0 mg/kg/injection, schedule: Q04DX003 (ip), vehicle: saline with Tween-80
  T/C: 100 % of control
dose: 200.0 mg/kg/injection, schedule: Q04DX003 (ip), vehicle: saline with Tween-80
  T/C: 108 % of control
dose: 400.0 mg/kg/injection, schedule: Q04DX003 (ip), vehicle: saline with Tween-80
  T/C: 105 % of control

## Cc1nc(Cl)c(Cl)[nH]1
[4]
  T/C: 97 % of control
[5]
  T/C: 111 % of control
